Reference: publication PMC10419174, “WR1065 conjugated to thiol-PEG polymers as novel anticancer prodrugs: broad spectrum efficacy, synergism, and drug resistance reversal” (Frontiers in Oncology, 2023)
Where “and” joins values, the source holds several entries; their conditions need not be identical. Identical values can stand only once. Like-named read-outs stand apart in the source and are kept apart here.

Legend:
Prostate LNCaP cells = assay: cells
Experimental: (§1) The percentage of growth inhibition was calculated as follows: […]

NCI-H1975 NSCLC cells = assay: cells
Experimental: as §1

human cancer cell lines = assay: cells
Experimental: as §1

Prostate DU145 cells = assay: cells
Experimental: as §1

[1] = test system: Mammary gland MDA-MB-231 cells; assay: CyQUANT-NF proliferation assay, 48-h drug treatment; type: cell-based
Experimental: Since the BRG prodrugs are composed of WR1065 as one of the major constituents, assays were conducted to determine if factors reported to modulate the activity of amino acid and polyamine plasma membrane transport systems impacted the efficacy of 4SP65 or 1LP65 in selected cancer cell lines. HL60 cells were exposed to 4SP65 with up to 0.5 mM NaCl, MBA-MD-231 cells were tested in the presence and absence of medium supplemented with estradiol plus insulin (in the BulletKit™ for growth supplements for NHMECs), HCC38 cells were exposed to 4SP65 with and without 10 µM insulin added to the growth medium, and multiple cells lines were pretreated for 24 h with 1 mM DFMO prior to starting exposures to 4SP65.
as §1

[2] = test system: Mammary gland HCC38 cells; assay: as above; type: cell-based; details: for Relative cell inhibition: 99% confluent cells, 48 h
[3] = 48-h treatment, amifostine ND = not definable up to 500 µM
[4] = 4SP65: average across 15 cell lines, 48 h
[5] = 15 cell lines for 4SP65, 11 for 1LP65
[6] = average of A549, H460, PPMMill, LNCaP
[7] = average of HCC38, MDA-MB-231, H1975, HMESO1, PANC1, DU145, PC3
[8] = averages of dose-response metrics across the panel
[9] = averages over 11 cell lines, minimal fold differences

Substance: 4-star-PEG-S-S-WR1065 [4SP65]
- Dose reduction value 1LP65 ÷ 4SP65 (Prostate LNCaP cells; at GI50): 11 fold
- Dose reduction value AMF ÷ 4SP65 (Prostate LNCaP cells; at GI50): 60 fold
- Dose reduction value 1LP65 ÷ 4SP65 (Prostate LNCaP cells; at IC50): 14 fold
- Dose reduction value AMF ÷ 4SP65 (Prostate LNCaP cells; at IC50): 122 fold
- Dose reduction value 1LP65 ÷ 4SP65 (Prostate LNCaP cells; at LC50): 12 fold
- Dose reduction value 1LP65 ÷ 4SP65 (Prostate LNCaP cells; at LC99): 11 fold
- Dose reduction value 1LP65 ÷ 4SP65 (Prostate LNCaP cells; at TGI): 11 fold
- CC50 (NCI-H1975 NSCLC cells): 7.6 ± 1.3 µM
- GI50 (NCI-H1975 NSCLC cells; [3]): 3.1 ± 0.6 µM
- IC50 (NCI-H1975 NSCLC cells; [3]): 4.2 ± 1 µM
- LC99 (NCI-H1975 NSCLC cells; [3]): 9.3 ± 1.1 µM
- TGI (NCI-H1975 NSCLC cells; [3]): 5.2 ± 0.9 µM
- Dose reduction value 1LP65 ÷ 4SP65 (NCI-H1975 NSCLC cells; at GI50): 13 fold
- Dose reduction value AMF ÷ 4SP65 (NCI-H1975 NSCLC cells; at GI50): 42 fold
- Dose reduction value 1LP65 ÷ 4SP65 (NCI-H1975 NSCLC cells; at IC50): 13 fold
- Dose reduction value 1LP65 ÷ 4SP65 (NCI-H1975 NSCLC cells; at LC50): 8.3 fold
- Dose reduction value 1LP65 ÷ 4SP65 (NCI-H1975 NSCLC cells; at LC99): 9.3 fold
- Dose reduction value 1LP65 ÷ 4SP65 (NCI-H1975 NSCLC cells; at TGI): 10 fold
- fold more potent than 1LP65, average (human cancer cell lines): 10.4 fold
- fold increases in cytostatic and cytolytic activities, range (human cancer cell lines; 4SP65-cisplatin combined, H460 and SKOV3 cells): 1.3- to 36 fold
- gains of effect, range (not significant) (human cancer cell lines; 4SP65-cisplatin combined, HMESO1 and PPMMill cells): 1.1- to 1.3 fold
- LC99, All cell lines (human cancer cell lines; [4]): 11.2 ± 1.2 µM
- TGI, All cell lines (human cancer cell lines; [4]): 6.8 ± 1.1 µM
- LC99, range for individual cell lines (human cancer cell lines; [5]): 3.0 to 21.1 µM
- TGI, range for individual cell lines (human cancer cell lines; [5]): 2.0 to 16.3 µM
- fold more effective as a cytostatic agent than PRIMA-1 or APR-246 (human cancer cell lines; TP53 mutant cells): 2.3- to 30 fold
- fold more effective as a cytostatic agent than PRIMA-1 or APR-246 (human cancer cell lines; TP53 wild-type cells): 4.3- to 21 fold
- LC99, TP53 Wild-Type (human cancer cell lines; [6]): 14.4 ± 1.6 µM
- TGI, TP53 Wild-Type (human cancer cell lines; [6]): 9.5 ± 2.0 µM
- LC99, TP53 Mutant (human cancer cell lines; [7]): 9.1 ± 0.9 µM
- TGI, TP53 Mutant (human cancer cell lines; [7]): 4.4 ± 0.9 µM
- fold more potent than amifostine as a cytostatic agent, average (human cancer cell lines; [8]): 55 fold
- fold more potent than amifostine as a cytostatic agent, range (human cancer cell lines; [8]): 45- to 63 fold
- Fold difference in drug potency 4SP65 vs 1LP65: GI50 (human cancer cell lines; averages over 11 cell lines): 10.2
- Fold difference in drug potency 4SP65 vs 1LP65: IC50 (human cancer cell lines; averages over 11 cell lines): 9.7
- Fold difference in drug potency 4SP65 vs 1LP65: LC50 (human cancer cell lines; averages over 11 cell lines): 10.4
- Fold difference in drug potency 4SP65 vs 1LP65: LC99 (human cancer cell lines; averages over 11 cell lines): 11.3
- Fold difference in drug potency 4SP65 vs 1LP65: TGI (human cancer cell lines; averages over 11 cell lines): 10.2
- Fold difference in drug potency vs amifostine: GI50 (human cancer cell lines; [9]): > 45
- Fold difference in drug potency vs amifostine: IC50 (human cancer cell lines; [9]): > 57
- Fold difference in drug potency vs amifostine: TGI (human cancer cell lines; [9]): > 63
- fold more potent than 1LP65, range (human cancer cell lines; depending on the dose-response metric): 9.7- to 11.3 fold
- fold greater effect than amifostine (human cancer cell lines; four cell lines where amifostine GI50 <100 µM): 38 fold
- GI50 (human cancer cell lines; read-out: GI50, All cell lines, 4SP65: average across 15 cell lines, 48 h): 4.1 ± 0.8 µM
- GI50 (human cancer cell lines; read-out: GI50, TP53 Mutant, average of HCC38, MDA-MB-231, H1975, HMESO1, PANC1, DU145, PC3): 2.6 ± 0.8 µM
- GI50 (human cancer cell lines; read-out: GI50, TP53 Wild-Type, average of A549, H460, PPMMill, LNCaP): 5.8 ± 1.4 µM
- GI50 (human cancer cell lines; read-out: GI50, range for individual cell lines, 15 cell lines for 4SP65, 11 for 1LP65): 0.7 to 10.6 µM
- GI50 (human cancer cell lines; read-out: GI50 range, seven cell lines compared with NCI data (Table 5)): 0.7 to 9.4 µM
- GI50 (human cancer cell lines; read-out: average GI50, four cell lines where amifostine GI50 <100 µM): 1.7 µM
- fold potency greater than predicted by four versus one WR1065/molecule (human cancer cell lines; versus 1LP65): ~ 2.5 fold
- CC50 (Prostate DU145 cells): 11.1 ± 0.1 µM
- GI50 (Prostate DU145 cells; [3]): 7.5 ± 1.2 µM
- IC50 (Prostate DU145 cells; [3]): 8.5 ± 1 µM
- LC99 (Prostate DU145 cells; [3]): 12.0 ± 0.1 µM
- TGI (Prostate DU145 cells; [3]): 9.5 ± 0.7 µM and 9.5 µM
- Dose reduction value 1LP65 ÷ 4SP65 (Prostate DU145 cells; at GI50): 3.5 fold
- Dose reduction value AMF ÷ 4SP65 (Prostate DU145 cells; at GI50): 17 fold
- Dose reduction value 1LP65 ÷ 4SP65 (Prostate DU145 cells; at IC50): 3.5 fold
- Dose reduction value AMF ÷ 4SP65 (Prostate DU145 cells; at IC50): 38 fold
- Dose reduction value 1LP65 ÷ 4SP65 (Prostate DU145 cells; at LC50): 6.4 fold
- Dose reduction value 1LP65 ÷ 4SP65 (Prostate DU145 cells; at LC99): 7.0 fold
- Dose reduction value 1LP65 ÷ 4SP65 (Prostate DU145 cells; at TGI): 5.6 fold
- CC50 [1]: 9.2 ± 1.2 µM
- IC50 [1, 3]: 4.7 ± 0.9 µM
- LC99 [1, 3]: 11.0 ± 1.8 µM
- TGI [1, 3]: 6.6 ± 1.0 µM and 6.6 µM
- selectivity index ([1]; IC50 in NHMECs ÷ IC50 in MDA-MB-231, average): > 26
- Dose reduction value 1LP65 ÷ 4SP65 ([1]; at GI50): 26 fold
- Dose reduction value 1LP65 ÷ 4SP65 ([1]; at IC50): 15 fold
- Dose reduction value 1LP65 ÷ 4SP65 ([1]; at LC50): 15 fold
- Dose reduction value 1LP65 ÷ 4SP65 ([1]; at LC99): 14 fold
- Dose reduction value 1LP65 ÷ 4SP65 ([1]; at TGI): 21 fold
- fold increase in drug efficacy at the TGI level with hormones ([1]; insulin plus estradiol): ~4 fold
- TGI ([1]; with insulin plus estradiol, 48 h): 1.2 µM
- TGI ([1]; without hormones, 48 h (pilot experiment)): 4.6 µM
- CC50 [2]: 6.8 ± 0.9 µM
- GI50 [2, 3]: 1.3 ± 0.4 µM
- IC50 [2, 3]: 4.1 ± 0.2 µM
- LC99 [2, 3]: 11.9 ± 1.6 µM
- TGI [2, 3]: 3.7 ± 0.3 µM
- Relative cell inhibition ([2]; 10 µM 4SP65 alone): 3.4 ± 10.9%
- Relative cell inhibition ([2]; 10 µM 4SP65 with 10 µM insulin): 42 ± 6.5%
- selectivity index ([2]; IC50 in NHMECs ÷ IC50 in HCC38, average): > 31
- Dose reduction value 1LP65 ÷ 4SP65 ([2]; at GI50): 28 fold
- Dose reduction value AMF ÷ 4SP65 ([2]; at GI50): 60 fold
- Dose reduction value 1LP65 ÷ 4SP65 ([2]; at IC50): 12 fold
- Dose reduction value AMF ÷ 4SP65 ([2]; at IC50): 67 fold
- Dose reduction value 1LP65 ÷ 4SP65 ([2]; at LC50): 8.8 fold
- Dose reduction value 1LP65 ÷ 4SP65 ([2]; at LC99): 7.1 fold
- Dose reduction value 1LP65 ÷ 4SP65 ([2]; at TGI): 13 fold
- Dose reduction value AMF ÷ 4SP65 ([2]; at TGI): 69 fold
- fold increase in drug efficacy with insulin ([2]; growth-arrested cells): 12.4 fold
